The results in this text go back to patent US11459338B2, “Heterocyclic compounds as PRMT5 inhibitors” (JUBILANT EPISCRIBE LLC, priority 2018, dated 2022).

In test [1] the test system is Symmetric di-methyl arginine in Z-138 cells. Description: Z-138 methylation assay, ELISA for detection of symmetric di-methyl arginine. It counts as cell-based. As to conditions: Homo sapiens. The procedure: General reagents. […] Iscove's Modified Dulbecco's Medium (IMDM), Horse serum, penicillin-streptomycin, PBS and TMB-ELISA substrate solution were purchased from ThermoFisher Scientific. Symmetric di-methyl arginine antibody was purchased from Cell Signaling Technologies.Anti-SNRPD3/SmD3 antibody was purchased from Sigma-Aldrich.
ELISA for detection of Symmetric di-methyl arginine. […] A compound source plate was prepared by performing ten-point 3-fold dilution in DMSO, such that the final top concentration of the compound was 10 μM, and DMSO was 0.3%. The total volume of compounds added was 20 μL. The cells were incubated for 96 h at 37° C., 5% CO2. Z-138 cells were directly lysed in media with 3× Lysis Buffer (1×: 10 mM HEPES pH7.9, 5 mM MgCl2, 1M NaCl, 0.25M Sucrose, 1% Triton X-100, 1 mM PMSF, Protease & Phosphatase inhibitors). […] Plates were incubated at room temperature for a minimum of 3 h and then washed with PBS-Tween 20 (0.05%). The plates were blocked with 5% BSA at room temperature for 1 h, washed with PBS-Tween 20 and incubated with primary antibody at 4 C overnight.

In another test the target is T1, PRMT5/MEP50 (Homo sapiens, UniProt O14744).
T1 construct: Full-length human PRMT5 (NP_006100)
T1 sequence (O14744 whole entry): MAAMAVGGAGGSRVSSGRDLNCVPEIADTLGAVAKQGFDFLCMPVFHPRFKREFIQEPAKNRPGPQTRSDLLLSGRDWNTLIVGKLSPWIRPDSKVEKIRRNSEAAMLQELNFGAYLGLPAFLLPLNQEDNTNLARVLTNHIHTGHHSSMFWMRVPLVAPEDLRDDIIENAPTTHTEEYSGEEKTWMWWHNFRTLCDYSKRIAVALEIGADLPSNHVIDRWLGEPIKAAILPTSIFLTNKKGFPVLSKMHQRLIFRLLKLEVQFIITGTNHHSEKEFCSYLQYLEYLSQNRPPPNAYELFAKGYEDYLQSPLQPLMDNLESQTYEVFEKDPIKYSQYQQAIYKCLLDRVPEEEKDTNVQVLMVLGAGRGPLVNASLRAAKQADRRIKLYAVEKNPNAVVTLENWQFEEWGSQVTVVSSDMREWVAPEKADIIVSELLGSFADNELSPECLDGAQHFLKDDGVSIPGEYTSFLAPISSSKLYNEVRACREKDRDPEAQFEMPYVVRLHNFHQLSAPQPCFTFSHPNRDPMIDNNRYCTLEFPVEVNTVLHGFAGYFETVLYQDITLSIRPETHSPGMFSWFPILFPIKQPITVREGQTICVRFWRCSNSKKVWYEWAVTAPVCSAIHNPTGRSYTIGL
T1 sequence (Q9BQA1 whole entry partner): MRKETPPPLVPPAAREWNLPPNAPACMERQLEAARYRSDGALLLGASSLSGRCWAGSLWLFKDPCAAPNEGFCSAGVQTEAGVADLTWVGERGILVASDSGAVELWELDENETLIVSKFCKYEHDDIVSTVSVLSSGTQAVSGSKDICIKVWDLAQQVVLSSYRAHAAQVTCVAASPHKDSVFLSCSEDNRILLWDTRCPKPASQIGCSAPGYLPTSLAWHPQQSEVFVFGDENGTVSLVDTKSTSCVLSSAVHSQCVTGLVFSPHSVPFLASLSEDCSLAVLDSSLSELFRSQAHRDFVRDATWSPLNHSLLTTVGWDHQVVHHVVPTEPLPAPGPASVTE
Description: PRMT5/MEP50 enzyme assay on peptide substrates (3H-SAM Flashplate). Format: biochemical. To be noted: PRMT5/MEP50 10 nM, H4 1-15aa peptide 100 nM, 3H-SAM 1 μM.

The next test concerns Z-138 cells. Nature of the test: Z-138 long term proliferation assay (Cell Titer Glo). It counts as cell-based. As to conditions: Homo sapiens; for GI50: 192 h, Z-138 cells, cell viability, day 8, read-out: PRMT5 Z138 GI50 Day 8 μM; for IC50: Z-138, 192 h, summary of Table 1, read-out: IC50 value (all the three assays): Z138 GI50 Day 8. In a few lines:
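Z-138 cells exposed to ten-point 3-fold dilutions (top 10 μM, 0.3% DMSO) for 96 h at 37° C., 5% CO2, then re-dosed for four more days.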
On the technique in general: ATP-based viability assays read luminescence as a measure of living cells.

Setting [2] is: Z-138, 96 h, summary of Table 1, read-out: IC50 value (all the three assays): Z138 SDMA ELISA Day 4.
Where [3] appears, read: Z-138 cells, 96 h (day 4), read-out: PRMT5 Z138 SDMA ELISA Day 4 μM.

Read-outs that look alike come from different tables or passages of the source.

As usually defined, the GI50 is the concentration at which growth is held to half of that of the control. Take `Cc1noc(C)c1-c1ccc2nc(C(=O)NC[C@H](O)CN3CCc4ccccc4C3)cn2c1` [Example 15, (S)—N-(3-(3,4-dihydroisoquinolin-2(1H)-yl)-2-hydroxypropyl)-6-(3,5-dimethylisoxazol-4-yl)imidazo[1,2-a]pyridine-2-carboxamide]: the IC50 (in test [1] (setting [2]); in test [1] (setting [3]); on PRMT5/MEP50; in the test with Z-138 cells) was 0.01 to 1 µM each time. The GI50 with Z-138 cells lay within 0.01 to 1 µM.

On to `O=C(NC[C@H](O)CN1CCc2ccccc2C1)c1cn2cc(-c3cc(F)cc(F)c3)ccc2n1` [Example 16, (S)-6-(3,5-difluorophenyl)-N-(3-(3,4-dihydroisoquinolin-2(1H)-yl)-2-hydroxypropyl)imidazo[1,2-a]pyridine-2-carboxamide], for which the IC50 (in test [1] (setting [2]); in test [1] (setting [3]); against PRMT5/MEP50; with Z-138 cells) was 0.01 to 1 µM throughout. In addition, the GI50 in the test on Z-138 cells lay in the range of 0.01 to 1 µM.

Regarding `O=C(NC[C@H](O)CN1CCc2ccccc2C1)c1cn2cc(-c3ccc(F)cc3)ccc2n1` [Example 17, (S)—N-(3-(3,4-dihydroisoquinolin-2(1H)-yl)-2-hydroxypropyl)-6-(4fluorophenyl) imidazo[1,2-a]pyridine-2-carboxamide], the IC50 (in test [1] (setting [2]); in test [1] (setting [3]); against PRMT5/MEP50; in the test on Z-138 cells) was 0.01 to 1 µM throughout. Moreover, the 50% growth inhibitory concentration (GI50) in the test on Z-138 cells fell in the range of 0.01 to 1 µM.

On to `O=C(NC[C@H](O)CN1CCc2ccccc2C1)c1cn2cc(C3=CCOCC3)ccc2n1` [Example 19, (S)-6-(3,6-dihydro-2H-pyran-4-yl)-N-(3-(3,4-dihydroisoquinolin-2(1H)-yl)-2-hydroxypropyl)imidazo[1,2-a]pyridine-2-carboxamide], for which the IC50 (in test [1] (setting [2]); in test [1] (setting [3]); at PRMT5/MEP50; in the test on Z-138 cells) was 0.01 to 1 µM in each case. Besides, the GI50 in the test with Z-138 cells lay in the range of 0.01 to 1 µM.

As for `O=C(NC[C@H](O)CN1CCc2ccccc2C1)c1cn2cc(-c3cnn([C@@H]4CCOC4)c3)ccc2n1` [Example 20, N—((S)-3-(3,4-dihydroisoquinolin-2(1H)-yl)-2-hydroxypropyl)-6-(1-((R)-tetrahydrofuran-3-yl)-1H-pyrazol-4-yl)imidazo[1,2-a]pyridine-2-carboxamide], the IC50 (in test [1] (setting [2]); in test [1] (setting [3]); against PRMT5/MEP50; with Z-138 cells) was 0.01 to 1 µM each time. In the test with Z-138 cells, the GI50 was in the range of 0.01 to 1 µM.

Take `CC(=O)N1CC(n2cc(-c3ccc4nc(C(=O)NC[C@H](O)CN5CCc6ccccc6C5)cn4c3)cn2)C1` [Example 23, (S)-6-(1-(1-acetylazetidin-3-yl)-1H-pyrazol-4-yl)-N-(3-(3,4-dihydroisoquinolin-2(1H)-yl)-2-hydroxypropyl)imidazo[1,2-a]pyridine-2-carboxamide]: the IC50 (in test [1] (setting [2]); in test [1] (setting [3]); on PRMT5/MEP50; in the test on Z-138 cells) was 0.01 to 1 µM each time. For the same compound, the GI50 in the test with Z-138 cells was in the range of 0.01 to 1 µM.

Take `Cn1cc(-c2ccc3nc(C(=O)NC[C@H](O)CN4CCc5ccccc5C4)cn3c2)nn1` [Example 36, (S)—N-(3-(3,4-dihydroisoquinolin-2(1H)-yl)-2-hydroxypropyl)-6-(1-methyl-1H-1,2,3-triazol-4-yl)imidazo[1,2-a]pyridine-2-carboxamide]: the IC50 (in test [1] (setting [2]); in test [1] (setting [3]); against PRMT5/MEP50; in the test on Z-138 cells) was 0.01 to 1 µM each time. In addition, the GI50 in the test with Z-138 cells lay in the range of 0.01 to 1 µM.

In the case of `CC(=O)Nc1ccc2nc(C(=O)NC[C@H](O)CN3CCc4ccccc4C3)cn2c1` [Example 39, (S)-6-acetamido-N-(3-(3,4-dihydroisoquinolin-2(1H)-yl)-2-hydroxypropyl)imidazo[1,2-a]pyridine-2-carboxamide], the IC50 (in test [1] (setting [3]); on PRMT5/MEP50) was 0.01 to 1 µM in each case. In the test on Z-138 cells, the GI50 fell in the range of 1 to 5 µM.

For the compound `CS(=O)(=O)Nc1ccc2nc(C(=O)NC[C@H](O)CN3CCc4ccccc4C3)cn2c1` [Example 41, (S)—N-(3-(3,4-dihydroisoquinolin-2(1H)-yl)-2-hydroxypropyl)-6-(methylsulfonamido)imidazo[1,2-a]pyridine-2-carboxamide], the IC50 in test [1] (setting [3]) was 0.01 to 1 µM; at PRMT5/MEP50 it was over 5 µM. The GI50 in the test on Z-138 cells lay in the range of 0.01 to 1 µM.

On to `O=C(NC[C@H](O)CN1CCc2ccccc2C1)c1cn2cc(C(F)(F)F)cnc2n1` [Example 42], for which the IC50 (in test [1] (setting [3]); at PRMT5/MEP50) was 0.01 to 1 µM in each case. Further, the GI50 in the test on Z-138 cells lay within 1 to 5 µM.

As to `Cn1cc(-c2cnc3nc(C(=O)NC[C@H](O)CN4CCc5ccccc5C4)cn3c2)cn1` [Example 43, (S)—N-(3-(3,4-dihydroisoquinolin-2(1H)-yl)-2-hydroxypropyl)-6-(1-methyl-1H-pyrazol-4-yl)imidazo[1,2-a]pyrimidine-2-carboxamide], the IC50 was 0.01 to 1 µM in test [1] (setting [3]) and over 5 µM on PRMT5/MEP50. The GI50 in the test with Z-138 cells is over 5 µM.

Regarding `Cn1cc(-c2cn3cc(C(=O)NC[C@H](O)CN4CCc5ccccc5C4)nc3cn2)cn1` [Example 45, (S)—N-(3-(3,4-dihydroisoquinolin-2(1H)-yl)-2-hydroxypropyl)-6-(1-methyl-1H-pyrazol-4-yl)imidazo[1,2-a]pyrazine-2-carboxamide], the IC50 (in test [1] (setting [2]); in test [1] (setting [3]); at PRMT5/MEP50; in the test with Z-138 cells) was 0.01 to 1 µM in each case. Moreover, the GI50 with Z-138 cells fell in the range of 0.01 to 1 µM.

For the compound `Cn1ccc(-c2cn3cc(C(=O)NC[C@H](O)CN4CCc5ccccc5C4)nc3cn2)cc1=O` [Example 47, (S)—N-(3-(3,4-dihydroisoquinolin-2(1H)-yl)-2-hydroxypropyl)-6-(1-methyl-2-oxo-1,2-dihydropyridin-4-yl)imidazo[1,2-a]pyrazine-2-carboxamide], the IC50 (in test [1] (setting [2]); in test [1] (setting [3]); against PRMT5/MEP50; in the test on Z-138 cells) was 0.01 to 1 µM each time. Moreover, in the test on Z-138 cells, the GI50 was in the range of 0.01 to 1 µM.

For the compound `Cn1ccc(-c2ccc3nc(C(=O)NC[C@H](O)CN4CCc5ccccc5C4)cn3n2)cc1=O` [Example 48, (S)—N-(3-(3,4-dihydroisoquinolin-2(1H)-yl)-2-hydroxypropyl)-6-(1-methyl-2-oxo-1,2-dihydropyridin-4-yl)imidazo[1,2-b]pyridazine-2-carboxamide], the IC50 (in test [1] (setting [2]); in test [1] (setting [3]); against PRMT5/MEP50; in the test on Z-138 cells) was 0.01 to 1 µM throughout. Further, in the test with Z-138 cells, the GI50 is 0.01 to 1 µM.

With `O=C(NC[C@H](O)CN1CCc2ccccc2C1)c1cn2cc(N3CCC3)ccc2n1` [Example 69, (S)-6-(azetidin-1-yl)-N-(3-(3,4-dihydroisoquinolin-2(1H)-yl)-2-hydroxypropyl)imidazo[1,2-a]pyridine-2-carboxamide], the IC50 (in test [1] (setting [3]); against PRMT5/MEP50) was 0.01 to 1 µM each time. Besides, the GI50 in the test on Z-138 cells was in the range of 1 to 5 µM.

With `O=C(NC[C@H](O)CN1CCc2ccccc2C1)c1cn2cc(N3CCC(F)C3)ncc2n1` (stereo partly drawn) [Example 73, N—((S)-3-(3,4-dihydroisoquinolin-2(1H)-yl)-2-hydroxypropyl)-6-(3-fluoropyrrolidin-1-yl)imidazo[1,2-a]pyrazine-2-carboxamide], the values for the IC50 (in test [1] (setting [3]); against PRMT5/MEP50) were 0.01 to 1 µM and 1 to 5 µM, respectively. In the test on Z-138 cells, the GI50 lay within 1 to 5 µM.
